The text below walks through data of patent US20100260680A1, “NOVEL BONE MASS INCREASING AGENT” (ORIENTAL YEAST CO., LTD., priority 2007, published 2010).

Bridges are numbered along the chain shown (N, C = ends). Where no end group is shown, it is not given here.

In assay [1] the test system is human alkaline phosphatase (hALP) and human type I collagen (hCollagen I). The experiment in a line: RT-PCR analysis of hALP and hCollagen I in human mesenchymal stem cells. It is filed as cell-based. On the procedure: Human mesenchymal stem cells (3×10^4 cells) were seeded on a 6-well plate, followed by culture for 7 days in the presence of an osteoblast differentiation medium (Lonza) or a maintenance medium (Lonza). Peptide D (100 μM and 300 μM) was added to each well. Further, a peptide solvent was added to a control group. After culture, the cells were washed with PBS and dissolved in QIAzol Lysis Reagent (QIAGEN) (0.75 mL). Then, the solution was collected. The solution was left at room temperature for 5 minutes. Then, chloroform (Wako) (0.15 mL) was added, the resultant was admixed by turning upside down, and then the resultant was centrifuged under conditions of 4° C. and 12000×g for 15 minutes. The supernatant was collected in a new tube. RNA was isolated from the supernatant with the use of an EZ1 RNA universal tissue kit (QIAGEN) and Magtration System 12GC (QIAGEN). After determination of the RNA concentration, each RNA (250 ng) was subjected to electrophoresis with 1% agarose gel for confirmation of the occurrence or nonoccurrence of RNA degradation. Non-degraded RNAs (500 ng each) were subjected to RT-PCR. RT-PCR was performed using a ThermoScript RT-PCR System (Invitrogen) and random primers. […]
Samples obtained after the PCR reaction were subjected to electrophoresis with 1% agarose gel. […] The obtained images were analyzed with a CSAnalyzer. […]

Assay [2] deals with Human mesenchymal stem cells. The experiment in a line: ALP activity determination in human mesenchymal stem cells. Type of assay: cell-based. Particulars: Day 7, differentiation medium and maintenance medium. On the procedure:
Human mesenchymal stem cells were seeded on a 96-well plate (1×10^3 cells/well) (Nunc) and a 48-well plate (2.4×10^3 cells/well) (IWAKI). After 24 hours, the culture supernatant was removed from each plate and an osteoblast differentiation induction medium (Lonza) was introduced thereonto. The medium was replaced with new medium every 3 or 4 days.
At such time, peptide D was added at a concentration of 100 μM (group treated with peptide D). As a negative control, the control peptide was added at the same concentration.
Seven days after differentiation, the culture supernatant was removed from each plate and the cells were fixed with an acetone/ethanol solution. The ALP activity was determined using p-nitrophenyl phosphate as a substrate. Specifically, a carbonate buffer (5 mM MgCl2, 50 mM NaHCO3) containing p-nitrophenyl phosphate (Nacalai) (1 mg/mL) was added to each well (100 μL/well), followed by incubation at 37° C. Then, the OD value at 405 nm was determined with the use of a microplate reader (BMG Labtech) for each well.
Human mesenchymal stem cells (hMSC; Lonza) were seeded on a 96-well plate (Nunc) (2×10^3 cells/well). After cell adhesion had taken place, the medium was replaced with a differentiation medium prepared by adding 100 nM dexamethasone (SIGMA), 10 mM BGP(SIGMA), and 50 μg/mL ascorbic acid to a dedicated maintenance medium (Lonza). […]

For “peptide D: cyclic peptide of SEQ ID NO: 7, 9 amino acids, two cysteine residues bound via a disulfide bond; binds to RANKL (YCWSQYLCY; disulfide 2-8 (inferred))”, in assay [1] (100 μM and 300 μM, 7-day differentiation), the “expression levels of alkaline phosphatase and type I collagen” value is listed as “increased in a peptide-concentration-dependent manner”. Also, the “mRNA expression levels of alkaline phosphatase and type I collagen” value in assay [1] (300 μM, maintenance medium) is on record as “caused increases in the mRNA expression levels”. Besides, the ALP activity result in assay [2] (300 μM) is recorded as “significant increase in ALP activity”; in assay [2] (peptide D 100 μM) it was “significantly increased”.
